In the supplement of paper PMC10307832:

How the values were obtained:
Assay in all cases: relative viability (nuclei count vs DMSO), 5 days (fraction); higher = more cells survive
[1] = system: A-427
In short: (§1)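 The day after seeding in 1536-well plates, lung cancer cell lines were treated by pin tool with a single drug, or with a fixed anchor-drug dose together with five library-drug doses (not always all listed) in √10 steps. After 5 days, a combined fix-and-stain solution (final 0.05% Triton X-100, 1% formaldehyde, 1 ug/ml Hoechst) was added. Nuclei counted on 4× images gave relative viability as treated counts over vehicle counts, reported as the median of duplicate plates.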

[2] = system: ABC-1
In short: as §1

[3] = system: COR-L23
In short: as §1

[4] = system: EMC-BAC-2
In short: as §1

[5] = system: HARA
In short: as §1

[6] = system: HOP-62
In short: as §1

[7] = system: LK-2
In short: as §1

[8] = system: LU99A
In short: as §1

[9] = system: LXF-289
In short: as §1

[10] = system: NCI-H1792
In short: as §1

[11] = system: NCI-H1793
In short: as §1

[12] = system: NCI-H1944
In short: as §1

[13] = system: NCI-H1993
In short: as §1

[14] = system: NCI-H2009
In short: as §1

[15] = system: NCI-H2170
In short: as §1

[16] = system: NCI-H2228
In short: as §1

[17] = system: NCI-H3122
In short: as §1

[18] = system: NCI-H596
In short: as §1

[19] = system: NCI-H727
In short: as §1

[20] = system: PC-3 [JPC-3]
In short: as §1

[21] = system: SK-LU-1
In short: as §1

[22] = system: SK-MES-1
In short: as §1

[23] = system: SW 1573
In short: as §1

[24] = system: SW 900
In short: as §1

C[C@@H]1CN(CC(=O)Nc2ccc3c(c2)Cc2cccc(-c4cc(=O)cc(N5CCOCC5)o4)c2S3)C[C@H](C)O1 + N=C(N)NC(=N)NCCc1ccccc1 [Phenformin] (partner 250 µM)
relative viability ([1]; first compound 0.04 µM): 0.298
relative viability ([1]; first compound 0.1265 µM): 0.35
relative viability ([1]; first compound 0.4 µM): 0.284
relative viability ([1]; first compound 4 µM): 0.285
relative viability ([2]; first compound 0.1265 µM): 0.256
relative viability ([2]; first compound 0.4 µM): 0.273
relative viability ([2]; first compound 4 µM): 0.236
relative viability ([3]; first compound 0.04 µM): 0.435
relative viability ([3]; first compound 0.1265 µM): 0.476
relative viability ([3]; first compound 0.4 µM): 0.499
relative viability ([3]; first compound 4 µM): 0.439
relative viability ([4]; first compound 0.04 µM): 0.56
relative viability ([4]; first compound 0.1265 µM): 0.566
relative viability ([4]; first compound 0.4 µM): 0.495
relative viability ([4]; first compound 4 µM): 0.513
relative viability ([5]; first compound 0.1265 µM): 0.357
relative viability ([5]; first compound 0.4 µM): 0.436
relative viability ([5]; first compound 4 µM): 0.467
relative viability ([6]; first compound 0.04 µM): 0.613
relative viability ([6]; first compound 0.1265 µM): 0.689
relative viability ([6]; first compound 0.4 µM): 0.715
relative viability ([6]; first compound 4 µM): 0.615
relative viability ([7]; first compound 0.1265 µM): 0.464
relative viability ([7]; first compound 0.4 µM): 0.365
relative viability ([7]; first compound 4 µM): 0.634
relative viability ([8]; first compound 0.04 µM): 0.742
relative viability ([8]; first compound 0.1265 µM): 0.985
relative viability ([8]; first compound 0.4 µM): 1.02
relative viability ([8]; first compound 4 µM): 0.916
relative viability ([9]; first compound 0.04 µM): 0.482
relative viability ([9]; first compound 0.1265 µM): 0.517
relative viability ([9]; first compound 0.4 µM): 0.549
relative viability ([9]; first compound 4 µM): 0.517
relative viability ([10]; first compound 0.04 µM): 0.35
relative viability ([10]; first compound 0.4 µM): 0.303
relative viability ([10]; first compound 4 µM): 0.526
relative viability ([11]; first compound 0.04 µM): 0.347
relative viability ([11]; first compound 0.1265 µM): 0.339
relative viability ([11]; first compound 0.4 µM): 0.272
relative viability ([11]; first compound 4 µM): 0.273
relative viability ([12]; first compound 0.04 µM): 0.191
relative viability ([12]; first compound 0.1265 µM): 0.214
relative viability ([12]; first compound 0.4 µM): 0.23
relative viability ([12]; first compound 4 µM): 0.215
relative viability ([13]; first compound 0.04 µM): 0.532
relative viability ([13]; first compound 0.1265 µM): 0.497
relative viability ([13]; first compound 0.4 µM): 0.481
relative viability ([13]; first compound 4 µM): 0.498
relative viability ([14]; first compound 0.04 µM): 0.525
relative viability ([14]; first compound 0.1265 µM): 0.494
relative viability ([14]; first compound 0.4 µM): 0.453
relative viability ([14]; first compound 4 µM): 0.384
relative viability ([15]; first compound 0.04 µM): 0.406
relative viability ([15]; first compound 0.1265 µM): 0.43
relative viability ([15]; first compound 0.4 µM): 0.44
relative viability ([15]; first compound 4 µM): 0.412
relative viability ([16]; first compound 0.04 µM): 0.356
relative viability ([16]; first compound 0.1265 µM): 0.406
relative viability ([16]; first compound 0.4 µM): 0.287
relative viability ([16]; first compound 4 µM): 0.289
relative viability ([17]; first compound 0.04 µM): 0.409
relative viability ([17]; first compound 0.1265 µM): 0.387
relative viability ([17]; first compound 0.4 µM): 0.365
relative viability ([17]; first compound 4 µM): 0.301
relative viability ([18]; first compound 0.04 µM): 0.792
relative viability ([18]; first compound 0.1265 µM): 0.658
relative viability ([18]; first compound 0.4 µM): 0.635
relative viability ([18]; first compound 4 µM): 0.757
relative viability ([19]; first compound 0.04 µM): 0.626
relative viability ([19]; first compound 0.1265 µM): 0.663
relative viability ([19]; first compound 0.4 µM): 0.599
relative viability ([19]; first compound 4 µM): 0.544
relative viability ([20]; first compound 0.04 µM): 0.494
relative viability ([20]; first compound 0.1265 µM): 0.469
relative viability ([20]; first compound 0.4 µM): 0.475
relative viability ([20]; first compound 4 µM): 0.488
relative viability ([21]; first compound 0.04 µM): 0.621
relative viability ([21]; first compound 0.1265 µM): 0.531
relative viability ([21]; first compound 0.4 µM): 0.516
relative viability ([21]; first compound 4 µM): 0.373
relative viability ([22]; first compound 0.04 µM): 0.723
relative viability ([22]; first compound 0.1265 µM): 0.652
relative viability ([22]; first compound 0.4 µM): 0.665
relative viability ([22]; first compound 4 µM): 0.546
relative viability ([23]; first compound 0.04 µM): 0.438
relative viability ([23]; first compound 0.1265 µM): 0.315
relative viability ([23]; first compound 0.4 µM): 0.301
relative viability ([23]; first compound 4 µM): 0.312
relative viability ([24]; first compound 0.04 µM): 0.466
relative viability ([24]; first compound 0.1265 µM): 0.724
relative viability ([24]; first compound 0.4 µM): 0.669
relative viability ([24]; first compound 4 µM): 0.488
